According to US20160175249A1, “Liposomes Containing Oligopeptide Fragments of Myelin Basic Protein, a Pharmaceutical Composition and a Method for Treatment of Multiple Sclerosis” (LIPOXEN TECHNOLOGIES LIMITED, priority 2009, published 2016):
“Also recorded” adds a separate entry of the source.

Key:
EAE-induced DA rats = test: EAE-induced DA rat model, paralysis score and mortality (DA-EAE-28-05, Example 14); assay type: in vivo; conditions: versus water control (Group 1); days 1-4 post-treatment; daily s.c., 6 total; n=6
Method: Each of the four MBP peptide formulations being evaluated were provided as lyophilized powders and stored at 4° C. Each formulation was rehydrated in water for injection according to Table 13. Copaxone (Teva LTD) was diluted with Saline to a final concentration of 720 μg/mL. Each subject animal was administered the test formulation for 6 consecutive days by subcutaneous injection.
8-9 week old Dark Agouti (DA) female rats (Harlan Laboratories, Inc.), weighing between 110 and 145 grams were used as the test subjects. The health status of the animals used in this study was examined on arrival. Only animals in good health were acclimatized to laboratory conditions and were used in the study. Animals were provided food ad libitum and free access to drinking water. Animals were housed in a controlled environment at between 20° C. and 24° C. with a relative humidity of 30-70% and a 12 hr light/12 hr dark cycle. Animals were randomly assigned to their respective test group. […]
The rats were evaluated up daily starting 24 hours after immunization. […] The animals were maintained and evaluated until day 28th post EAE-induction. […]
Animals were observed individually and clinical signs were recorded once daily during all study periods. […] The body weight of each animals was determined daily during all study periods.

[1] = test system: experimental autoimmune encephalomyelitis (EAE) in DA rats; test: EAE in DA rats treated with MBP peptides in mannosylated SUV liposomes (Example 10); assay type: in vivo
Method: All animal studies were carried out in animal facilities of Assaf Harofeh Medical Center (Zerifin, Israel) using standard approved practices for animal care. Induction of EAE was performed in 8-9 weeks Dark Agouti (DA) female rats. Briefly, rats were injected intradermally at the base of the tail with a total volume of 200 μl of inoculum, containing […] of MBP(63-81) (ANASPEC), in saline mixed (1:1) with CFA, (incomplete Freund's adjuvant (IFA), Sigma), and 1 mg MT (strain H37 RA; Difco Laboratories, Detroit, Mich.). Animals developing symptoms of MS were included to the study. Rats were treated with different liposomes formulations (Table 3), copaxone, or placebo (vehicle) under similar conditions for 6 days. All formulations were administrated by one subcutaneous injection per day. Animals were followed up till day 28th post EAE induction. Clinical signs score was performed daily during all study periods. Score gradation was the following: 0—Normal 1—tail weakness, 2—hind leg weakness or paralysis, 3—hind leg paralysis, dragging hind limbs, 4—complete paralysis, unable to move, 5—death.
Liposomes were assembled from a mixture of egg phosphatidylcholine (PC) and one molar percent mannosylated DOG (ManDOG) (Durova OM, supra). Assembly of SUV liposomes was performed as illustrated in FIG. 3: (i) formation of irregular lipid layers during evaporation of organic solvent, followed by re-hydration leading to the multi-layer multilamellar vesicle (MLV) liposomes formation; (ii) high-pressure homogenization resulting in formation of empty SUV; (iii) freeze drying of SUV liposomes with peptides—at this stage peptides are located between collapsed SUV liposomes; and (iv) encapsulation of peptides during second re-hydration into the SUV liposomes with an average diameter of approximately 60-100 nm, containing 1.0% mannose residues on their surface. Four formulations were used for this study: each B cell epitope MBP peptide (MBP1, MBP2, and MBP3) individually and a 1:1:1 mixture (by mass) of all three peptides.
Small unilamellar vesicles (SUV) were prepared from egg phosphatidylcholine (PC) and mannosylated DOG (Espuelas S. et al., Synthesis of an amphiphilic tetraantennary mannosyl conjugate and incorporation into liposome carriers, 2003 Bioorg Med Chem Lett., August 4; 13(15):2557-60, the contents of which are hereby incorporated by reference in their entirety for all purposes) (1:100 molar ratio) by high pressure homogenization (Durova OM, supra). Briefly, lipid mixture (100 mg/ml) in CHCl3 was dried under vacuum, further re-suspended in Milli-Q water to a final lipid concentration 50 mg/ml, followed by high-pressure homogenization (20,000 psi). Resulting SUV were mixed with peptides (lipid to peptide ratio 330:1) together with excess sugar (lactose to lipid ratio 3:1) with subsequent freeze-drying. Following rehydration under controlled conditions, the resulting SUV liposomes were washed by centrifugation to remove non-incorporated materials. The washed pellets were re-suspended in PBS to the required dose volume. Peptide incorporation was estimated on the basis of reversed-phase HPLC using linear gradient of acetonitrile applied on C18 column. The z-average diameter and zeta potential of liposomes were measured on a Brookhaven ZetaPlus zetasizer at 25° C. by diluting […] of the dispersion to the required volume with 1 mM PBS or appropriate media.
To test the therapeutic potential of the four formulations, DA rates presenting with induced EAE were subcutaneously injected with one of the four mannosylated liposomal formulations, copaxone (positive control), free (un-encapsulated) MBPI peptide (negative control), and empty mannosylated liposomes (vehicle control; Table 3).
Treatment of each rat was initiated at the first sign of EAE clinical manifestation. […]

glatiramer acetate [copaxone]
paralysis score (EAE-induced DA rats): non-statistically significant difference (tendency)
mean disease score course (FIG. 4) ([1]; 6 daily s.c. injections from first clinical sign): EAE amelioration rate similar to treatment with the MBP1/2/3 SUV formulation; also recorded: did not fully recover from EAE after the initial attack
Mortality ([1]; one s.c. injection per day, 6 injections, deaths/N): 0/12
Median Cumulative Disease Score ([1]; one s.c. injection per day, 6 injections, doses per Table 3): 18.5
Median Maximal Disease Score (IQR) ([1]; one s.c. injection per day, 6 injections, doses per Table 3, score 0-5): 2 (1.25)^1
